Test results taken from patent publication US12030862B2, “Allosteric chromenone inhibitors of phosphoinositide 3-kinase (PI3K) for the treatment of disease” (Petra Pharma Corporation, priority 2021, dated 2024).

Legend:
[1] = biological target: T1, PI3K-α (PIK3CA) wild-type (WT) (p110α/p85α complex) (Homo sapiens, UniProt P42336); assay: PI3K-Alpha kinase (PIK3CA) biochemical ADP-Glo assay, wild-type; details: 20 uM ATP, 1 h pre-incubation
T1 construct: Recombinant, catalytically active human full length PIK3KA Wild-type and H1047R mutant were purchased as 1:1 complex; 6xHis (N); purchased EMD Millipore Sigma 14-602M
Source text: (§1) PI3K-Alpha kinase (PIK3CA) activity, wild-type and H1047R mutant and determining IC50 values for inhibitors
(§2) Recombinant, catalytically active human full length PIK3KA Wild-type and H1047R mutant were purchased as 1:1 complex of N-terminal 6× his tagged p110α (catalytic) and untagged p85α (regulatory subunit) from EMD Millipore Sigma (cat. no. 14-602M and 14-792M, respectively). PIP2diC8 (Avanti Polar Lipids Inc., cat. no. 850185) or Soy PI (Avanti Polar Lipids Inc., cat. No. 840044P) was used as lipid substrate. PIP2diC8 or PI lyophilized powder was dissolved in milliQ water to a concentration of 1 mM just before use. 10 mM stock compounds in DMSO were serially diluted 1:3 to generate a 10-point curve and plated using an acoustic liquid handler system (Echo 550 series instrument, Labcyte). A 10× intermediate compound plate (200 uM starting compound concentration and 10% DMSO) was prepared before starting the reaction. A typical reaction mixture (50 uL) comprised 40 mM HEPES buffer, pH 7.4, 25 mM MgCl2, 0.01% v/v triton-X-100, 1% v/v DMSO, 20 mM NaCl, 1-5 nM WT or H1047R PI3K protein, 20 uM ATP, and 50 uM PIP2diC8 or Soy PI. 1% DMSO buffer alone without test compound was employed as MAX control (full activity in the absence of any inhibitor), and no enzyme control was used to determine the level of background Adenosine 5′-diphosphate (ADP) (MIN control). First, Wild-type (WT) and H1047R mutant protein in kinase buffer with all components except ATP were incubated with or without compound at 27° C. for 1 h. After the pre-incubation, the reaction was initiated by the addition of 20 uL of 50 uM ATP (20 uM final concentration). The reaction was allowed to proceed until about 10% conversion of ATP (2 uM ADP) at 27° C. After that time, 5 uL of reaction was mixed with 5 uL of ADP-Kinase Glo Reagent (ADP-Glo Kinase assay kit, Promega cat. no. V9102) supplemented with MgCl2 10 mM to stop the reaction and deplete the remaining ATP for 40 min at room temperature. Then, 10 uL of Kinase Detection Reagent (ADP-Glo Kinase assay kit, Promega cat. no. V9102) was added to simultaneously convert ADP to ATP and allow the newly synthesized ATP to be measured using a luciferase/luciferin reaction. After 30 min at room temperature the light generated was measured using a luminometer (EnVision plate reader, Perkin Elmer). Process data through Genedata-Screener tool. Relative IC50 values are determined using luminescence units by calculating percent inhibition with respect to on-plate “MIN” and “MAX” controls. Data was analyzed using a 4-parameter nonlinear logistic equation (four-parameter logistic concentration-response curve): Y=bot+[(top−bot)/1+(x/IC50)slope] where Y=% inhibition, X=concentration yielding y% inhibition, Bottom=minimum value of y attained by curve, Top=maximum value of y attained by curve and Slope=steepness of curve at IC50. % Inh=[(median Max−x/median Max−median Min)]·100 IC50: concentration of compound that reduces a given response (ligand binding, enzyme response) by 50%. IC50 relative: concentration giving half the compound's maximum response.
(§3) For IC50 values shown in Table A, “A” means IC50<0.5 μM; “B” means IC50 ranging between 0.5 μM and 1.0 μM; “C” means IC50 ranging between 1 μM and 5 μM; “D” means IC50 ranging between 5 μM and 10 μM; “E” means IC50>10 μM.

[2] = biological target: T2, PI3K-α (PIK3CA) H1047R mutant (p110α/p85α complex) (Homo sapiens, UniProt P42336, H1047R); assay: PI3K-Alpha kinase (PIK3CA) biochemical ADP-Glo assay, H1047R mutant; details: 20 uM ATP, 1 h pre-incubation
T2 construct: Recombinant, catalytically active human full length PIK3KA Wild-type and H1047R mutant were purchased as 1:1 complex; 6xHis (N); purchased EMD Millipore Sigma 14-792M
Source text: as §1, §2, §3

[3] = PIP2diC8 lipid substrate (footnote 1)

T2 sequence (P42336 whole entry H1047R): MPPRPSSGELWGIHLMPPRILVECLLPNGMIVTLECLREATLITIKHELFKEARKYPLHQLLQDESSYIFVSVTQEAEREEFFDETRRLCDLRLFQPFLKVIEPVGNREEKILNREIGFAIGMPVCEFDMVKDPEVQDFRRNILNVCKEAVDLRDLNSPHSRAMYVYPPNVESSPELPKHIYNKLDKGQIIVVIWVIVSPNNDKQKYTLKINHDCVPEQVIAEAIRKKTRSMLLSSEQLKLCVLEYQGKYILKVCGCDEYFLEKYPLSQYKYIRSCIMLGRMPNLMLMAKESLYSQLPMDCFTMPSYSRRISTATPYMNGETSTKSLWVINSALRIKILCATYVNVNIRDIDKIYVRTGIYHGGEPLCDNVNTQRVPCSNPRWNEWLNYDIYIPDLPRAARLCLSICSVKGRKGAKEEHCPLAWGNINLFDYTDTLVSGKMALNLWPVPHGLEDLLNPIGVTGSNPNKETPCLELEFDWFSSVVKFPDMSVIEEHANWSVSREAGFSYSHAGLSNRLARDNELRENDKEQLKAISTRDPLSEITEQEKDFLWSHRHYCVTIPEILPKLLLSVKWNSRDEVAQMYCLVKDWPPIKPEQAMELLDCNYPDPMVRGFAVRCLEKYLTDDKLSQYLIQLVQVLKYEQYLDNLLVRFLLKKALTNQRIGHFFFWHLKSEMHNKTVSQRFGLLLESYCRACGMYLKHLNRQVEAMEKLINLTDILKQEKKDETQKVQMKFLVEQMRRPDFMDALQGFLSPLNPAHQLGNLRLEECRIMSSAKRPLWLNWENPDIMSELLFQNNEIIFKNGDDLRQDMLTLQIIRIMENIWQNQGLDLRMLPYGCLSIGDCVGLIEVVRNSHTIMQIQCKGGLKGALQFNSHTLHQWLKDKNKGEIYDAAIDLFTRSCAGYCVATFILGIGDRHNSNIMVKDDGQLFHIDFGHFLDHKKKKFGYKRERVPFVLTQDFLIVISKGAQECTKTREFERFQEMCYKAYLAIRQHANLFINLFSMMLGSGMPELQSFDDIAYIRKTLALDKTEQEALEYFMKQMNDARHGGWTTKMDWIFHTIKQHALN
T2 sequence (P27986 whole entry partner): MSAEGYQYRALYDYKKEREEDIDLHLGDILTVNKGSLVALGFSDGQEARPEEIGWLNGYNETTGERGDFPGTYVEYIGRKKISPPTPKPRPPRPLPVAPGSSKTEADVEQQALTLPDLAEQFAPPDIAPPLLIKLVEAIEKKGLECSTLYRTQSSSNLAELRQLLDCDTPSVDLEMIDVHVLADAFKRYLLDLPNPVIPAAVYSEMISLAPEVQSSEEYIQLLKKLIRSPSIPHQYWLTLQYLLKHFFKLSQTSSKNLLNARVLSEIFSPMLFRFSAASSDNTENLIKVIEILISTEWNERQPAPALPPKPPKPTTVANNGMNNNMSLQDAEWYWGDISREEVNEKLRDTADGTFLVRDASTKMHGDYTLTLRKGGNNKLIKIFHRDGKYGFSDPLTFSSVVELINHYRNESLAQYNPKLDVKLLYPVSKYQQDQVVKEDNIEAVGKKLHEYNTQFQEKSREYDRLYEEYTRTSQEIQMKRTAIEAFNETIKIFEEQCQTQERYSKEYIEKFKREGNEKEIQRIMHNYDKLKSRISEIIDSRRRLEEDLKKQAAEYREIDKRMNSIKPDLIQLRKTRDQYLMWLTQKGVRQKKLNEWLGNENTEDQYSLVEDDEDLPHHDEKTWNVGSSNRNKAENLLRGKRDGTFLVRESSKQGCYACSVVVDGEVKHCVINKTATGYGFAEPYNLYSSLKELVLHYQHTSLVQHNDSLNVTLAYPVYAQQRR

Row | SMILES | IC50 [1, 3] [µM] | IC50 [2, 3] [µM] | IC50 ([1]; Soy PI lipid substrate) [µM] | IC50 ([2]; Soy PI lipid substrate) [µM]
1 | Cc1cc(C(C)Nc2ccccc2C(=O)O)c2oc(C3CCCCC3)cc(=O)c2c1 (single isomer, unassigned; isomer 1) [Example 8, 2-[1-(2-Cyclohexyl-6-methyl-4-oxo-chromen-8-yl)ethylamino]benzoic acid, Isomer 1] | > 10 | 1 to 5 |  | 
2 | Cc1cc(C(C)Nc2ccccc2C(=O)O)c2oc(C3CCC(C)(C)CC3)cc(=O)c2c1 (single isomer, unassigned; isomer 1) [Example 10, 2-[1-[2-(4,4-Dimethylcyclohexyl)-6-methyl-4-oxo-chromen-8-yl]ethylamino]benzoic acid, Isomer 1] | 1 to 5 | < 0.5 |  | 
3 | CC(Nc1ccccc1C(=O)O)c1cccc2c(=O)cc(C3CCCCC3)oc12 (single isomer, unassigned; isomer 1) [Example 12, 2-[1-(2-Cyclohexyl-4-oxo-chromen-8-yl)ethylamino]benzoic acid, Isomer 1] | > 10 | > 10 |  | 
4 | Cc1cc(C(C)Nc2ccccc2C(=O)O)c2oc(C3CCCCC3)cc(=O)c2c1 (single isomer, unassigned; isomer 2) [Example 9, 2-[1-(2-Cyclohexyl-6-methyl-4-oxo-chromen-8-yl)ethylamino]benzoic acid, Isomer 2] | < 0.5 | < 0.5 |  | 
5 | Cc1cc(C(C)Nc2ccccc2C(=O)O)c2oc(C3CCC(C)(C)CC3)cc(=O)c2c1 (single isomer, unassigned; isomer 2) [Example 11, 2-[1-[2-(4,4-Dimethylcyclohexyl)-6-methyl-4-oxo-chromen-8-yl]ethylamino]benzoic acid, Isomer 2] | > 10 | > 10 |  | 
6 | Cc1cc(C(C)Nc2ccccc2C(=O)O)c2oc(C3(c4ccccc4)CC3)cc(=O)c2c1 (stereo not drawn) [Example 7, 2-[1-[6-Methyl-4-oxo-2-(1-phenylcyclopropyl)chromen-8-yl]ethylamino]benzoic acid; 2,2,2-trifluoroacetic acid] |  |  | > 10 | < 0.5

The next lines start with the values.

Row | IC50 [1, 3] [µM] | IC50 [2, 3] [µM] | IC50 ([1]; Soy PI lipid substrate) [µM] | IC50 ([2]; Soy PI lipid substrate) [µM] | SMILES
7 |  |  | > 10 | > 10 | Cc1cc(C(C)Nc2ccccc2C(=O)O)c2oc(C3CCC(F)(F)CC3)cc(=O)c2c1 (single isomer, unassigned; isomer 1) [Example 14, 2-[1-[2-(4,4-Difluorocyclohexyl)-6-methyl-4-oxo-chromen-8-yl]ethylamino]benzoic acid, Isomer 1]
8 |  |  | 0.5 to 1 | < 0.5 | Cc1cc(C(C)Nc2ccccc2C(=O)O)c2oc(C3CCC(F)(F)CC3)c(C)c(=O)c2c1 (single isomer, unassigned; isomer 1) [Example 16, 2-[1-[2-(4,4-Difluorocyclohexyl)-3,6-dimethyl-4-oxo-chromen-8-yl]ethylamino]benzoic acid, Isomer 1]
9 |  |  | > 10 | 1 to 5 | Cc1cc(C(C)Nc2ccccc2C(=O)O)c2oc(C3Cc4ccccc4C3)cc(=O)c2c1 (single isomer, unassigned; isomer 1) [Example 18, 2-[1-(2-Indan-2-yl-6-methyl-4-oxo-chromen-8-yl)ethylamino]benzoic acid, Isomer 1]
10 |  |  | 1 to 5 | < 0.5 | Cc1cc(C(C)Nc2ccccc2C(=O)O)c2oc(C3Cc4ccccc4C3)c(C)c(=O)c2c1 (single isomer, unassigned; isomer 1) [Example 21, 2-[1-(2-Indan-2-yl-3,6-dimethyl-4-oxo-chromen-8-yl)ethylamino]benzoic acid, Isomer 1]
11 |  |  | > 10 | < 0.5 | CC(Nc1ccccc1C(=O)O)c1cccc2c(=O)cc(C3CCCCC3)oc12 (single isomer, unassigned; isomer 2) [Example 13, 2-[1-(2-Cyclohexyl-4-oxo-chromen-8-yl)ethylamino]benzoic acid, Isomer 2]
12 |  |  | > 10 | < 0.5 | Cc1cc(C(C)Nc2ccccc2C(=O)O)c2oc(C3CCC(F)(F)CC3)cc(=O)c2c1 (single isomer, unassigned; isomer 2) [Example 15, 2-[1-[2-(4,4-Difluorocyclohexyl)-6-methyl-4-oxo-chromen-8-yl]ethylamino]benzoic acid, Isomer 2]
13 |  |  | > 10 | > 10 | Cc1cc(C(C)Nc2ccccc2C(=O)O)c2oc(C3CCC(F)(F)CC3)c(C)c(=O)c2c1 (single isomer, unassigned; isomer 2) [Example 17, 2-[1-[2-(4,4-Difluorocyclohexyl)-3,6-dimethyl-4-oxo-chromen-8-yl]ethylamino]benzoic acid, Isomer 2]
14 |  |  | 1 to 5 | < 0.5 | Cc1cc(C(C)Nc2ccccc2C(=O)O)c2oc(C3Cc4ccccc4C3)cc(=O)c2c1 (single isomer, unassigned; isomer 2) [Example 19, 2-[1-(2-Indan-2-yl-6-methyl-4-oxo-chromen-8-yl)ethylamino]benzoic acid, Isomer 2]
15 |  |  | > 10 | > 10 | Cc1cc(C(C)Nc2ccccc2C(=O)O)c2oc(C3Cc4ccccc4C3)c(C)c(=O)c2c1 (single isomer, unassigned; isomer 2) [Example 22, 2-[1-(2-Indan-2-yl-3,6-dimethyl-4-oxo-chromen-8-yl)ethylamino]benzoic acid, Isomer 2]
